Earlier results, collected in patent US20230165856A1, “DAPAGLIFLOZIN AND AMBRISENTAN FOR THE PREVENTION AND TREATMENT OF COVID-19” (AstraZeneca AB, priority 2020, published 2023).
Read-outs that look alike come from different tables or passages of the source.

What was measured:
[1] = molecular target: T1, endothelin A (ETA) receptor (Homo sapiens, UniProt P25101)
T1 sequence (P25101 21-427): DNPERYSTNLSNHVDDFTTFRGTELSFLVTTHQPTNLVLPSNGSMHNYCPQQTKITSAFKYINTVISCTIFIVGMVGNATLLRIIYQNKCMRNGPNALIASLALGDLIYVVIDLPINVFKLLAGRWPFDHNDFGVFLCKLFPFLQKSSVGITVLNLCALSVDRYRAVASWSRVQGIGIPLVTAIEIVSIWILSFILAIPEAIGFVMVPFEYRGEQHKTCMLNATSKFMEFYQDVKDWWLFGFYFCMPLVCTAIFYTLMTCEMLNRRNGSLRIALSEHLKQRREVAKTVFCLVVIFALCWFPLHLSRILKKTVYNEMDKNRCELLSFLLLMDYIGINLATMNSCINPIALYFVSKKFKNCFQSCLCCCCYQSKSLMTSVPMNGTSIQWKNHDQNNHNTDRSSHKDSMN

[2] = human, in vivo
[3] = experimental pig model of acute lung injury
[4] = endotoxaemic sheep
[5] = HF patients with and without type 2 diabetes mellitus

COC(c1ccccc1)(c1ccccc1)[C@H](Oc1nc(C)cc(C)n1)C(=O)O [Ambrisentan, (2S)-2-[(4,6-dimethylpyrimidin-2-yl)oxy]-3-methoxy-3,3-diphenylpropanoic acid]
selectivity for the ETA versus the ETB receptor [1]: approximately 4000 fold
selectivity for the ET-A receptor compared to bosentan ([1]; compared to bosentan): greater selectivity

COc1ccccc1Oc1c(NS(=O)(=O)c2ccc(C(C)(C)C)cc2)nc(-c2ncccn2)nc1OCCO [Bosentan]
RVSP [2]: rapid and sustained improvement
oxygenation [2]: gradual improvement

COc1cc(OC)nc(O[C@H](C(=O)O)C(OC)(c2ccccc2)c2ccccc2)n1 [LU-135252]
oxygenation [3]: improved oxygenation

COc1ccccc1Oc1c(NS(=O)(=O)c2ccc(C(C)C)cn2)nc(-c2ccnc(-c3nnn[nH]3)c2)nc1OCCO [Tezosentan]
lung injury [4]: attenuated lung injury

CCOc1ccc(Cc2cc([C@@H]3O[C@H](CO)[C@@H](O)[C@H](O)[C@H]3O)ccc2Cl)cc1 [dapagliflozin]
cardiovascular (CV) death [5]: reduced
risk for hospitalization for heart failure (HF) [5]: reduce the risk
